Results published in ChEMBL document CHEMBL1201862, “PubChem BioAssay data set” (2004).
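Results reflect a 48-hour exposure of cells in 96-well plates to compound at five concentrations. At the GI50, growth is halved.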 Calls of active or inactive are those of the source. Cut-off read from the data, not from the text of the source: active = GI50 up to about 1.1 µM and inactive = higher.

Legend:
Assay in all cases: NCI anticancer screen, dose series, 48 h
[1] = tested on: OVCAR-8
[2] = tested on: SK-MEL-2
[3] = tested on: BT-549
[4] = tested on: HCC 2998
[5] = tested on: NCI-H522
[6] = tested on: ACHN
[7] = tested on: MCF7
[8] = tested on: DU-145
[9] = tested on: U-251
[10] = tested on: HCT-116
[11] = tested on: CCRF-CEM
[12] = tested on: UACC-62
[13] = tested on: MDA-MB-231
[14] = tested on: SN12C
[15] = tested on: EKVX
[16] = tested on: Malme-3M
[17] = tested on: OVCAR-5
[18] = tested on: MOLT-4
[19] = tested on: UO-31
[20] = tested on: NCI-H23
[21] = tested on: HCT-15
[22] = tested on: LOX IMVI
[23] = tested on: RPMI-8226
[24] = tested on: SF-539
[25] = tested on: SK-MEL-5
[26] = tested on: TK-10
[27] = tested on: RXF 393
[28] = tested on: HOP-92
[29] = tested on: OVCAR-4
[30] = tested on: SNB-19
[31] = tested on: HL-60
[32] = tested on: SW-620
[33] = tested on: A549
[34] = tested on: UACC-257
[35] = tested on: M14
[36] = tested on: CAKI-1
[37] = tested on: MDA-N
[38] = tested on: IGROV-1
[39] = tested on: Hs-578T
[40] = tested on: T47D
[41] = tested on: OVCAR-3
[42] = tested on: NCI/ADR-RES
[43] = tested on: HOP-62
[44] = tested on: SK-MEL-28
[45] = tested on: HT-29
[46] = tested on: SF-268
[47] = tested on: PC-3
[48] = tested on: SK-OV-3
[49] = tested on: KM12
[50] = tested on: NCI-H460
[51] = tested on: SNB-75
[52] = tested on: K562
[53] = tested on: SF-295
[54] = tested on: MDA-MB-435
[55] = tested on: COLO 205
[56] = tested on: SR
[57] = tested on: 786-0
[58] = tested on: NCI-H226

Measured: GI50

CC(ON(C(c1ccccc1)C(C)C)C(C)(C)C)c1ccccc1 (stereo unspecified)
inactive: [1] 21.8 µM | [2] 18.4 µM | [3] 12.6 µM | [4] 17.3 µM | [5] 26.5 µM | [6] 15.8 µM | [7] 16.4 µM | [8] 18.5 µM | [9] 17 µM | [10] 14.7 µM | [11] 19.1 µM | [12] 15.9 µM | [13] 21.1 µM | [14] 16.8 µM | [15] 15.4 µM | [16] 38.3 µM | [17] 16 µM | [18] 15 µM | [19] 24.5 µM | [20] 18.7 µM | [22] 18.4 µM | [23] 29.5 µM | [24] 21.6 µM | [25] 14.4 µM | [26] 22.4 µM | [27] 16.3 µM | [28] 20.6 µM | [29] 27 µM | [30] 18.5 µM | [31] 18.7 µM | [32] 16.2 µM | [33] 29.6 µM | [34] 17.2 µM | [35] 22.7 µM | [36] 21.7 µM | [37] 25.8 µM | [38] 23.1 µM | [39] 29 µM | [40] 25.9 µM | [41] 16.4 µM | [42] 23.1 µM | [43] 19.4 µM | [44] 20.4 µM | [45] 18.9 µM | [46] 24.4 µM | [47] 33.8 µM | [48] 39.3 µM | [49] 18.4 µM | [50] 18.1 µM | [51] 25.1 µM | [52] 18.9 µM | [53] 14.9 µM | [54] 25.5 µM | [55] 17.3 µM | [56] 23 µM | [57] 16.4 µM | [58] 19 µM
61.8 µM: [21]

COC(=O)/C=C(\C(=O)OC)C1C(=O)Oc2c(C)c(=O)c3ccccc3n21 (stereo unspecified)
inactive: [1] > 100 µM | [2] > 100 µM | [3] > 100 µM | [5] > 100 µM | [7] > 100 µM | [8] > 100 µM | [9] > 100 µM | [10] > 100 µM | [11] > 100 µM | [12] > 100 µM | [13] > 100 µM | [14] > 100 µM | [15] > 100 µM | [16] > 100 µM | [18] > 100 µM | [20] > 100 µM | [22] > 100 µM | [23] > 100 µM | [24] > 100 µM | [25] > 100 µM | [26] > 100 µM | [27] > 100 µM | [29] > 100 µM | [30] > 100 µM | [31] > 100 µM | [32] > 100 µM | [33] > 100 µM | [34] > 100 µM | [35] > 100 µM | [36] > 100 µM | [37] > 100 µM | [38] > 100 µM | [39] > 100 µM | [40] > 100 µM | [41] > 100 µM | [42] > 100 µM | [43] > 100 µM | [44] > 100 µM | [45] > 100 µM | [46] > 100 µM | [47] > 100 µM | [48] > 100 µM | [49] > 100 µM | [50] > 100 µM | [51] > 100 µM | [52] > 100 µM | [53] > 100 µM | [54] > 100 µM | [55] > 100 µM | [56] > 100 µM | [57] > 100 µM | [58] > 100 µM
> 100 µM: [21]
